Measured values taken from ChEMBL document CHEMBL4610119, “Lipophilic Triphosphate Prodrugs of Various Nucleoside Analogues” (J Med Chem, 2020).

Legend:
[1] = Stability in aqueous 25 mM PBS at pH 7.3 assessed as hydrolysis half life by HPLC analysis; type: physicochemical
[2] = system: Human immunodeficiency virus 1; test: microbe, parasite or virus in culture; type: functional, organism-based; settings: Human immunodeficiency virus 1, 3B, CCRF-CEM
Description: Antiviral activity against HIV1 3B infected in human CEM/0 cells assessed as inhibition of viral-induced giant cell formation incubated for 4 to 5 days by microscopy

[3] = Cytotoxicity in human CEM/0 cells assessed as reduction in cell viability incubated for 4 to 5 days
[4] = Stability in human CEM/0 cell extracts assessed as hydrolysis half life by HPLC analysis; type: ADME, CCRF-CEM
pig liver esterase = test: Stability in pH 7.3 PBS assessed as pig liver esterase mediated hydrolysis by measuring half life by HPLC analysis; type: ADME, Sus scrofa

Structure (SMILES): CCCCCCCCCCCCCCCCOC(=O)Oc1ccc(COP(=O)(OCc2ccc(OC(=O)CC)cc2)OP(=O)(O)OP(=O)(O)OC[C@H]2O[C@@H](n3cc(/C=C/Br)c(=O)[nH]c3=O)C[C@@H]2O)cc1.N.N (some centres not stated)
- half-life [1]: 56 h
- EC50 [2]: 11.2 µM
- CC50 ([3]; CEM/0 cells): 43 µM

Structure (SMILES): CCCCCCCCCCCCCCCCOC(=O)Oc1ccc(COP(=O)(OCc2ccc(OC(=O)CCCC)cc2)OP(=O)(O)OP(=O)(O)OC[C@@H]2C=C[C@H](n3cc(C)c(=O)[nH]c3=O)O2)cc1 (some centres not stated)
- EC50 [2]: 0.032 µM

Structure (SMILES): CCCCCCCCCCCCCCCCOC(=O)Oc1ccc(COP(=O)(OCc2ccc(OC(=O)CC)cc2)OP(=O)(O)OP(=O)(O)OC[C@H]2O[C@@H](n3cc(C)c(=O)[nH]c3=O)C[C@@H]2N=[N+]=[N-])cc1.N.N (some centres not stated)
- half-life [1]: 83 h
- EC50 [2]: 0.0094 µM
- CC50 ([3]; CEM/0 cells): 48 µM

Structure (SMILES): CCCCCCCCCCCCCCCCOC(=O)Oc1ccc(COP(=O)(OCc2ccc(OC(=O)CC)cc2)OP(=O)(O)OP(=O)(O)OC[C@H]2O[C@@H](n3cc(Cl)c(=O)[nH]c3=O)C[C@H]2N=[N+]=[N-])cc1.N.N (some centres not stated)
- half-life [1]: 67 h
- half-life [4]: 2.52 h
- half-life (pig liver esterase): 3 h
- EC50 [2]: > 45 µM
- CC50 ([3]; CEM/0 cells): 45 µM

Structure (SMILES): CCCCCCCCCCCCCCCCOC(=O)Oc1ccc(COP(=O)(OCc2ccc(OC(=O)CCCC)cc2)OP(=O)(O)OP(=O)(O)OC[C@@H]2O[C@H](n3cc(F)c(N)nc3=O)CS2)cc1.N.N (some centres not stated)
- half-life [1]: 36 h
- half-life [4]: 2.78 h
- half-life (pig liver esterase): 2.26 h
- EC50 [2]: 0.0043 µM
- CC50 ([3]; CEM/0 cells): 40.5 µM

Structure (SMILES): Cc1cn([C@H]2C=C[C@@H](CO)O2)c(=O)[nH]c1=O [STAVUDINE]
- EC50 [2]: 0.43 µM
- CC50 ([3]; ccrf-cem): > 50 µM

Structure (SMILES): CCCCCCCCCCCCCCCCOC(=O)Oc1ccc(COP(=O)(OCc2ccc(OC(=O)CC)cc2)OP(=O)(O)OP(=O)(O)OC[C@@H]2C=C[C@H](n3cc(C)c(=O)[nH]c3=O)O2)cc1 (some centres not stated)
- EC50 [2]: 0.027 µM

Structure (SMILES): CCCCCCCCCCCCCCCCOC(=O)Oc1ccc(COP(=O)(OCc2ccc(OC(=O)CCCC)cc2)OP(=O)(O)OP(=O)(O)OC[C@@H]2CC[C@H](n3cnc4c(=O)[nH]cnc43)O2)cc1.N.N (some centres not stated)
- half-life [1]: 41 h
- half-life [4]: 1.57 h
- half-life (pig liver esterase): 3.5 h
- EC50 [2]: 0.93 µM
- CC50 ([3]; CEM/0 cells): 43 µM

Structure (SMILES): Cc1cn([C@@H]2C[C@H](CO)[C@@H](O)C2)c(=O)[nH]c1=O
- EC50 [2]: 36 µM
- CC50 ([3]; CEM/0 cells): > 250 µM

Structure (SMILES): CCCCCCCCCCCCCCCCOC(=O)Oc1ccc(COP(=O)(OCc2ccc(OC(=O)CC)cc2)OP(=O)(O)OP(=O)(O)OC[C@H]2O[C@@H](n3ccc(=O)[nH]c3=O)C[C@H]2N=[N+]=[N-])cc1.N.N (some centres not stated)
- half-life [1]: 68 h
- half-life [4]: 1.54 h
- EC50 [2]: > 44 µM
- CC50 ([3]; CEM/0 cells): 44 µM

Structure (SMILES): O=c1[nH]cnc2c1ncn2[C@H]1CC[C@@H](CO)O1 [DIDANOSINE]
- EC50 [2]: 16 µM
- CC50 ([3]; CEM/0 cells): > 250 µM

Structure (SMILES): CCCCCCCCCCCCCCCCOC(=O)Oc1ccc(COP(=O)(OCc2ccc(OC(=O)CC)cc2)OP(=O)(O)OP(=O)(O)OC[C@H]2C[C@@H](n3cc(C)c(=O)[nH]c3=O)C[C@@H]2O)cc1.N.N (some centres not stated)
- half-life [1]: 74 h
- EC50 [2]: 0.52 µM
- CC50 ([3]; CEM/0 cells): 36 µM

Structure (SMILES): Nc1nc(=O)n([C@@H]2CS[C@H](CO)O2)cc1F [EMTRICITABINE]
- EC50 [2]: 0.01 µM
- CC50 ([3]; ccrf-cem): > 100 µM

Structure (SMILES): Cc1cn([C@H]2C[C@H](N=[N+]=[N-])[C@@H](CO)O2)c(=O)[nH]c1=O [ZIDOVUDINE]
- EC50 [2]: 0.005 µM
- CC50 ([3]; CEM/0 cells): > 100 µM

Structure (SMILES): O=c1[nH]c(=O)n([C@H]2C[C@H](O)[C@@H](CO)O2)cc1/C=C/Br [BRIVUDINE]
- EC50 [2]: > 250 µM
- CC50 ([3]; CEM/0 cells): 207 µM

Structure (SMILES): O=c1[nH]c(=O)n([C@H]2C[C@H](F)[C@@H](CO)O2)cc1Cl [RALURIDINE]
- EC50 [2]: > 250 µM
- CC50 ([3]; CEM/0 cells): 188 µM

Structure (SMILES): Cc1cn([C@H]2C[C@H](O)[C@@H](CO)O2)c(=O)[nH]c1=O [DOXRIBTIMINE]
- EC50 [2]: 4.11 µM
- CC50 ([3]; CEM/0 cells): 10.6 µM

Structure (SMILES): [N-]=[N+]=N[C@@H]1C[C@H](n2ccc(=O)[nH]c2=O)O[C@@H]1CO
- EC50 [2]: > 250 µM
- CC50 ([3]; CEM/0 cells): > 250 µM

Structure (SMILES): CCCCCCCCCCCCCCCCOC(=O)Oc1ccc(COP(=O)(OCc2ccc(OC(=O)CC)cc2)OP(=O)(O)OP(=O)(O)OC[C@@H]2O[C@H](n3cc(F)c(N)nc3=O)CS2)cc1.N.N (some centres not stated)
- half-life [1]: 45 h
- half-life [4]: 1.49 h
- half-life (pig liver esterase): 2.6 h
- EC50 [2]: 0.026 µM
- CC50 ([3]; CEM/0 cells): 35 µM

Structure (SMILES): CCCCCCCCCCCCCCCCOC(=O)Oc1ccc(COP(=O)(OCc2ccc(OC(=O)CCCC)cc2)OP(=O)(O)OP(=O)(O)OC[C@H]2O[C@@H](n3cc(/C=C/Br)c(=O)[nH]c3=O)C[C@@H]2O)cc1.N.N (some centres not stated)
- half-life [1]: 62 h
- half-life [4]: 1.31 h
- half-life (pig liver esterase): 7 h
- EC50 [2]: 1.49 µM
- CC50 ([3]; CEM/0 cells): 43 µM

Structure (SMILES): CCCCCCCCCCCCCCCCOC(=O)Oc1ccc(COP(=O)(OCc2ccc(OC(=O)CC)cc2)OP(=O)(O)OP(=O)(O)OC[C@H]2O[C@@H](n3cc(Cl)c(=O)[nH]c3=O)C[C@@H]2F)cc1.N.N (some centres not stated)
- half-life [1]: 56 h
- half-life [4]: 1.64 h
- EC50 [2]: 1.28 µM
- CC50 ([3]; CEM/0 cells): 42 µM

Structure (SMILES): [N-]=[N+]=N[C@@H]1C[C@H](n2cc(Cl)c(=O)[nH]c2=O)O[C@@H]1CO
- EC50 [2]: > 100 µM
- CC50 ([3]; CEM/0 cells): > 100 µM

Structure (SMILES): CCCCCCCCCCCCCCCCOC(=O)Oc1ccc(COP(=O)(OCc2ccc(OC(=O)CCCC)cc2)OP(=O)(O)OP(=O)(O)OC[C@H]2O[C@@H](n3cc(C)c(=O)[nH]c3=O)C[C@@H]2N=[N+]=[N-])cc1.N.N (some centres not stated)
- half-life [1]: 84 h
- half-life [4]: 5 h
- half-life (pig liver esterase): 4 h
- EC50 [2]: 0.0037 µM
- CC50 ([3]; CEM/0 cells): 42 µM

Structure (SMILES): CCCCCCCCCCCCCCCCOC(=O)Oc1ccc(COP(=O)(OCc2ccc(OC(=O)CC)cc2)OP(=O)(O)OP(=O)(O)OC[C@H]2O[C@@H](n3cc(C)c(=O)[nH]c3=O)C[C@@H]2O)cc1.N.N (some centres not stated)
- half-life [1]: 76 h
- EC50 [2]: 10.8 µM
- CC50 ([3]; CEM/0 cells): 14 µM

Structure (SMILES): CCCCCCCCCCCCCCCCOC(=O)Oc1ccc(COP(=O)(OCc2ccc(OC(=O)CCCC)cc2)OP(=O)(O)OP(=O)(O)OC[C@H]2O[C@@H](n3cc(Cl)c(=O)[nH]c3=O)C[C@@H]2F)cc1.N.N (some centres not stated)
- half-life [1]: 66 h
- EC50 [2]: 2.59 µM
- CC50 ([3]; CEM/0 cells): 42 µM

Structure (SMILES): CCCCCCCCCCCCCCCCOC(=O)Oc1ccc(COP(=O)(O)OP(=O)(O)OP(=O)(O)OC[C@H]2O[C@@H](n3cc(Cl)c(=O)[nH]c3=O)C[C@@H]2F)cc1
- EC50 [2]: 2.5 µM
- CC50 ([3]; CEM/0 cells): 54 µM
